Source: BindingDB's records for doi:10.1016/s0014-5793(96)01132-5 (Cnrs Upr 9023, 1996)
“And” between values parts separate entries of the source, which are not always exact repeats. Identical values can stand only once. Counter-ions that a name gives are not always drawn.

Target: 5-hydroxytryptamine receptor 4 (Mus musculus, UniProt P97288)
Sequence (P97288 whole entry): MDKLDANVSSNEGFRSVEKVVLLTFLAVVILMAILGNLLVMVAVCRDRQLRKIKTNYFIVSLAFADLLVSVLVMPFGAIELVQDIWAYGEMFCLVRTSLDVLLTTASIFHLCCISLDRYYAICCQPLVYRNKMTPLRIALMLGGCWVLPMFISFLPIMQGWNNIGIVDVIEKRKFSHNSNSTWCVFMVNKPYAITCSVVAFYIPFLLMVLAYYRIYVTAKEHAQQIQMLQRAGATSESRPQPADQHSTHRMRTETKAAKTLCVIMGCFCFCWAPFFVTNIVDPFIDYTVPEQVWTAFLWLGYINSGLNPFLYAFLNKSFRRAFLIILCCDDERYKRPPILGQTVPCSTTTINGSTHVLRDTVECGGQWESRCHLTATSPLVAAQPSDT

Row | SMILES | Ki
1 | CN1C2CCC1CC(OC(=O)c1c[nH]c3ccccc13)C2 (stereo not given) | 87.1 nM
2 | COc1cc(N)c(Cl)cc1C(=O)NC1CCN(CCCC(=O)N2CCC(N(C)C)CC2)CC1OC (stereo not given) [4-Amino-5-chloro-N-(1-{4-[4-(dimethylamino)-1-piperidinyl]-4-oxobutyl}-3-methoxy-4-piperidinyl)-2-methoxybenzamide] | 2.88 nM
3 | COc1cc(N)c(Cl)cc1C(=O)NC1CCN(CCCOc2ccc(F)cc2)CC1OC (stereo not given) [4-amino-5-chloro-N-(1-(3-(4-fluorophenoxy)propyl)-3-methoxypiperidin-4-yl)-2-methoxybenzamide] | 32.4 nM
4 | CCN(CC)CCNC(=O)c1cc(Cl)c(N)cc1OC [4-amino-5-chloro-N-[2-(diethylamino)ethyl]-2-methoxy-benzamide;hydrochloride] | 891 nM
5 | CCn1c(=O)n(C(=O)NC2CC3CCC(C2)N3C)c2ccccc21 (stereo not given) [BIMU 1] | 28.8 nM
6 | CC(C)n1c(=O)n(C(=O)NC2C[C@H]3CC[C@@H](C2)N3C)c2ccccc21 (stereo not given in full) [BIMU 8] | 40.7 nM
7 | COc1ccc2[nH]c(=O)n(C(=O)OC3CC4CCC(C3)N4C)c2c1 (stereo not given) [DAU 6285] | 55 nM
8 | Cn1cc(C(=O)OCC2CCN(CCNS(C)(=O)=O)CC2)c2ccccc21 [GR 113808] | 0.2 nM
9 | COc1[nH]c2ccc(F)cc2c1C(=O)OCC1CCN(CCNS(C)(=O)=O)CC1 [GR-125487] | 0.02 nM
10 | COc1cc(N)c(Cl)cc1C(=O)NC1CCN2CCCC1C2 (stereo not given) [NSC_3035240] | 132 nM
11 | CCN(CC)CCOC(=O)c1cc(Cl)c(N)cc1OC [SDZ-205557] | 7.76 nM
12 | COc1cc(N)c(Cl)cc1C(=O)NC1CN2CCC1CC2 (stereo not given) [ZACOPRIDE,R] | 191 nM
13 | NCCc1c[nH]c2ccc(O)cc12 [[3H]-5-HT] | 56.2 nM
14 | NCCc1c[nH]c2ccc(C(N)=O)cc12 [[3H]-5-carboxamidotryptamine] | > 10000 nM and 9770 nM
15 | COc1ccc2[nH]cc(CCN)c2c1 [tryptamine, 5-Methoxy] | 229 nM
